Converted amounts (≈) assume the structure as drawn.

The test deals with Mycobacterium tuberculosis. Nature of the test: Antimycobacterial activity against multi drug resistant Mycobacterium tuberculosis. It is filed as functional.
`O=C(NCN1CCN(c2ccc(F)cc2)CC1)c1cnccn1` had an MIC90 of 1.76 µg/mL (≈ 5.58 µM).
The figure for `O=C(NCN1CCN(c2ccc(Cl)cc2)CC1)c1cnccn1` is 12.5 µg/mL (≈ 37.7 µM).
The figure for `CCn1cc(C(=O)O)c(=O)c2cc(F)c(N3CCN(CNC(=O)c4cnccn4)CC3)cc21` is 0.78 µg/mL (≈ 1.72 µM).
The figure for `O=C(NCN1CCN(c2cccc(Cl)c2)CC1)c1cnccn1` is 6.25 µg/mL (≈ 18.8 µM); for `O=C(NCN1CCN(c2cc3c(cc2F)c(=O)c(C(=O)O)cn3C2CC2)CC1)c1cnccn1` it is 0.78 µg/mL (≈ 1.67 µM).
`NC(=O)c1cnccn1` [PYRAZINAMIDE] showed an MIC90 of over 25 µg/mL.
The figure for `COc1ccc(N2CCN(CNC(=O)c3cnccn3)CC2)cc1` is over 25 µg/mL; for `CN1CCN(CNC(=O)c2cnccn2)CC1` it is over 25 µg/mL.
The figure for `CCn1cc(C(=O)O)c(=O)c2cc(F)c(N3CCN(CNC(=O)c4cnccn4)CC3)c(F)c21` is 0.78 µg/mL (≈ 1.65 µM); for `O=C(NCN1CCN(c2ccccc2)CC1)c1cnccn1` it is over 25 µg/mL; for `COc1cccc(N2CCN(CNC(=O)c3cnccn3)CC2)c1` it is over 25 µg/mL.
The figure for `O=C(NCN1CCN(c2ccccn2)CC1)c1cnccn1` is over 25 µg/mL; for `O=C(NCN1CCN(Cc2ccccc2)CC1)c1cnccn1` it is over 25 µg/mL.
`O=C(NCN1CCN(c2ccc(C(F)(F)F)cc2)CC1)c1cnccn1` showed an MIC90 of 1.76 µg/mL (≈ 4.82 µM).
The figure for `O=C(NCN1CCN(c2ncccn2)CC1)c1cnccn1` is over 25 µg/mL; for `O=C(NCN1CCN(c2ccc([N+](=O)[O-])cc2)CC1)c1cnccn1` it is 6.25 µg/mL (≈ 18.3 µM); for `COc1ccccc1N1CCN(CNC(=O)c2cnccn2)CC1` it is over 25 µg/mL.
